Test results taken from ChEMBL document CHEMBL1152186, “Design, synthesis, and evaluation of orally active inhibitors of plasminogen activator inhibitor-1 (PAI-1) production” (Bioorg Med Chem Lett, 2008).
Values after ≈ are worked out from the molar mass of the structure shown.

Assays:
[1] = Solubility in water; type: physicochemical
Bos taurus [2] = species: Bos taurus; assay: Inhibition of LPS-induced PAI1 production in BCAEC at 1 uM after 24 hrs relative to T-686; type: functional
[3] = Metabolic stability in dog blood after 1 hr; type: ADME, tissue-based, Canis lupus familiaris; details: read-out: Stability
Rattus norvegicus [4] = assay: Antithrombotic activity in rat venous thrombosis model assessed as decrease in thrombus weight at 3 mg/kg, po administered for 3 days after 2 hrs last dose; type: functional; set-up: scale not given: the % may be the effect or the level left
Rattus norvegicus [5] = assay: Toxicity in rat assessed as decrease in locomotor activity at 300 mg/kg, po; type: organism-based; set-up: dose 300 mg/kg, route oral; details: in vivo
Bos taurus [6] = species: Bos taurus; assay: Inhibition of LPS-induced PAI1 production in BCAEC at 10 uM after 24 hrs relative to T-686; type: functional

| SMILES | solubility [1] [µg/mL] | Activity (Bos taurus [2]) | remaining at 1 h [3] [%] | Activity (Bos taurus [6]) | further results |
| --- | --- | --- | --- | --- | --- |
| COC(=O)C(=C(/C)c1cc(OC)cc(OC)c1)/C(=C\c1ccncc1)C(N)=O | > 4000 | 1.5 | 88 | – | – |
| COC(=O)C(=C(/C)c1cc(OC)cc(OC)c1)/C(=C\c1ccccc1)C(=O)NN1CCN(C)CC1 | > 4000 | 1.5 | 89 | – | Activity (Rattus norvegicus [4]): 50%; Activity (Rattus norvegicus [5]): Non-toxic |
| COC(=O)C(=C/c1cc(OC)c(OC)c(OC)c1)/C(C(N)=O)=C(\C)c1ccccc1 | – | – | – | 0.3 | – |
| COc1cc(/C=C2/C(=O)NC(=O)/C2=C/c2ccccc2)cc(OC)c1OC | 9 (≈ 0.0246 mM) | 1 | 79 | 1 | – |
| COC(=O)C(=C(/C)c1cc(OC)cc(OC)c1)/C(=C\c1ccccc1)C(=O)NCc1cccnc1 | 1600 (≈ 3.39 mM) | 1.3 | 87 | – | Activity (Rattus norvegicus [4]): 53%; Activity (Rattus norvegicus [5]): Toxic |
| COC(=O)C(=C/c1cc(OC)c(OC)c(OC)c1)/C(C(N)=O)=C(/C)c1ccccc1 | – | – | – | 0.2 | – |
| COC(=O)C(=C(/C)c1cc(OC)cc(OC)c1)/C(=C\c1ccccc1)C(=O)NN1CC[N+](C)([O-])CC1 | – | 0.2 | – | – | – |
| COC(=O)C(=C/c1cc(OC)c(OC)c(OC)c1)/C(=C\c1ccccc1)C(N)=O | – | – | – | 0.9 | – |
| COC(=O)C(=C(/C)c1cc(OC)cc(OC)c1)/C(=C\c1ccccc1)C(=O)Nc1cccnc1 | > 2000 | 2.2 | 83 | – | – |
| COC(=O)C(=C(/C)c1cc(OC)cc(OC)c1)/C(=C\c1ccccc1)C(=O)NC1CCN(C)CC1 | – | 0.8 | – | – | – |
| COC(=O)C(/C(=C\c1ccccc1)C(N)=O)=C(\C)c1cc(OC)c(OC)c(OC)c1 | – | – | – | 0.3 | – |
| COC(=O)C(=C(/C)c1cc(OC)cc(OC)c1)/C(=C\c1ccccc1)C(=O)Nc1ccncc1 | > 3000 | 1.8 | 87 | – | Activity (Rattus norvegicus [4]): 58%; Activity (Rattus norvegicus [5]): Toxic |
| COC(=O)C(=C(/C)c1cc(OC)cc(OC)c1)/C(=C\c1ccccc1)C(=O)Nc1ncccn1 | – | 0.1 | – | – | – |
| COC(=O)C(=C(/C)c1cc(OC)cc(OC)c1)/C(=C\c1ccccc1)C(=O)Nc1nnn[nH]1 | – | 0.1 | – | – | – |
| COC(=O)C(=C(/C)c1cc(OC)cc(OC)c1)/C(=C\c1ccccc1)C(=O)Nc1cccc2cccnc12 | – | 0.4 | – | – | – |
| COC(=O)C(=C/c1cc(OC)c(OC)c(OC)c1)/C(=C/c1ccccc1)C(N)=O | – | – | – | 0.7 | – |
| COC(=O)C(=C(/C)c1cc(OC)cc(OC)c1)/C(=C\c1cccnc1)C(N)=O | – | 0.8 | – | – | – |
| COC(=O)C(=C(/C)c1cc(OC)c(OC)c(OC)c1)/C(=C\c1ccccc1)C(N)=O | 106 (≈ 0.258 mM) | 1.5 | 96 | 1 | – |
| COC(=O)C(=C(/C)c1cc(OC)cc(OC)c1)/C(=C\c1ccccc1)C(=O)Nn1cnnc1 | – | 0.6 | – | – | – |
| COC(=O)C(=C(/C)c1cc(OC)cc(OC)c1)/C(=C\c1ccccc1)C(=O)O | – | 0.4 | – | – | – |
| COC(=O)C(=C(/C)c1cc(OC)cc(OC)c1)/C(=C\c1ccccc1)C(=O)NCc1ccncc1 | > 2000 | 2.1 | 76 | – | – |
| COC(=O)C(=C\c1cc(OC)c(OC)c(OC)c1)/C(=C\c1ccccc1)C(N)=O | – | – | 75 | 0.7 | – |
| COC(=O)C(=C(/C)c1cc(OC)cc(OC)c1)/C(=C\c1ccccc1)C(=O)N1CCN(C)CC1 | – | 0.3 | – | – | – |
